# Data as given in PubChem BioAssay (NCI).
#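 Where inhibition never reached the appropriate level, the endpoint shown equals the highest concentration tested. Otherwise, values were interpolated linearly from a five-concentration, 48-hour dose response in 96-well plates. TGI is the concentration that stops growth completely.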
# Assays:
# Test in all cases: NCI-60 cell line screen, 48 h
# [1] = tested on: NCI-H522 lung
# [2] = tested on: HCC-2998 colon
# [3] = tested on: UACC-257 melanoma
# [4] = tested on: MCF7 breast
# [5] = tested on: SW-620 colon
# [6] = tested on: TK-10 renal
# [7] = tested on: HOP-62 NSCLC
# [8] = tested on: SK-OV-3 ovarian
# [9] = tested on: SNB-19 CNS
# [10] = tested on: LOX IMVI melanoma
# [11] = tested on: OVCAR-8 ovarian
# [12] = tested on: M14 melanoma
# [13] = tested on: SK-MEL-2 melanoma
# [14] = tested on: MDA-MB-231 breast
# [15] = tested on: SF-268 CNS
# [16] = tested on: CAKI-1 renal
# [17] = tested on: U251 CNS
# [18] = tested on: HL-60(TB) leukemia
# [19] = tested on: OVCAR-4 ovarian
# [20] = tested on: NCI-H460 lung
# [21] = tested on: HT29 colon
# [22] = tested on: HCT-15 colon
# [23] = tested on: IGROV1 ovarian
# [24] = tested on: NCI-H23 lung
# [25] = tested on: MOLT-4 leukemia
# [26] = tested on: 786-0 renal
# [27] = tested on: PC-3 prostate
# [28] = tested on: SF-539 CNS
# [29] = tested on: UO-31 renal
# [30] = tested on: CCRF-CEM leukemia
# [31] = tested on: DU-145 prostate
# [32] = tested on: SNB-75 CNS
# [33] = tested on: UACC-62 melanoma
# [34] = tested on: ACHN renal
# [35] = tested on: NCI/ADR-RES ovarian
# [36] = tested on: HCT-116 colon
# [37] = tested on: MDA-MB-435
# [38] = tested on: OVCAR-3 ovarian
# [39] = tested on: COLO 205 colon
# [40] = tested on: SK-MEL-28 melanoma
# [41] = tested on: EKVX NSCLC
# [42] = tested on: OVCAR-5 ovarian
# [43] = tested on: MDA-N
# [44] = tested on: SN12C renal
# [45] = tested on: RPMI-8226 leukemia
# [46] = tested on: MALME-3M melanoma
# [47] = tested on: SR leukemia
# [48] = tested on: A498 renal
# [49] = tested on: T-47D breast
# [50] = tested on: HOP-92 NSCLC
# [51] = tested on: SF-295 CNS
# [52] = tested on: K-562 leukemia
# [53] = tested on: RXF 393 renal
# [54] = tested on: HS 578T breast
# [55] = tested on: KM12 colon
# [56] = tested on: A549 NSCLC
# [57] = tested on: SK-MEL-5 melanoma
# [58] = tested on: NCI-H226 lung
# [59] = tested on: BT-549 breast
smiles,measurement,setting,value
CC(=O)OCC1OC(O[C@@H]2C[C@H]3C(C)(C)[C@H](OC(C)=O)CC[C@]3(C)[C@H]3CC[C@]4(C)C(=CC[C@H]4[C@@H](C)C[C@@H](O)[C@H](O)C(C)(C)O)[C@@]32C)C(O)C(O)C1O (stereo not given in full),TGI,[1],5.07 µM
same,TGI,[2],35.1 µM
same,TGI,[3],35.1 µM
same,TGI,[4],33.2 µM
same,TGI,[5],32.8 µM
same,TGI,[6],32 µM
same,TGI,[7],29.3 µM
same,TGI,[8],32.5 µM
same,TGI,[9],29.3 µM
same,TGI,[10],30.2 µM
same,TGI,[11],33.4 µM
same,TGI,[12],36.5 µM
same,TGI,[13],31.1 µM
same,TGI,[14],31.2 µM
same,TGI,[15],29.3 µM
same,TGI,[16],27.3 µM
same,TGI,[17],25.3 µM
same,TGI,[18],33.3 µM
same,TGI,[19],29.8 µM
same,TGI,[20],31.2 µM
same,TGI,[21],32.5 µM
same,TGI,[22],31.4 µM
same,TGI,[23],33.8 µM
same,TGI,[24],35.5 µM
same,TGI,[25],31.8 µM
same,TGI,[26],29.9 µM
same,TGI,[27],30.8 µM
same,TGI,[28],29.9 µM
same,TGI,[29],31.9 µM
same,TGI,[30],35.1 µM
same,TGI,[31],32.1 µM
same,TGI,[32],36.5 µM
same,TGI,[33],30.5 µM
same,TGI,[34],30.4 µM
same,TGI,[35],> 100 µM
same,TGI,[36],27.5 µM
same,TGI,[37],28 µM
same,TGI,[38],28.7 µM
same,TGI,[39],27.7 µM
same,TGI,[40],29.8 µM
same,TGI,[41],40.2 µM
same,TGI,[42],27.1 µM
same,TGI,[43],32.7 µM
same,TGI,[44],31.7 µM
same,TGI,[45],30.2 µM
same,TGI,[46],31.9 µM
same,TGI,[47],31.8 µM
same,TGI,[48],34 µM
same,TGI,[49],32 µM
same,TGI,[50],30.9 µM
same,TGI,[51],33 µM
same,TGI,[52],37.7 µM
COC(=O)/C(=N\N)C(C(=O)C(=O)Nc1cccc([N+](=O)[O-])c1)c1nc2ccc(C(=O)c3ccccc3)cc2[nH]c1=O (stereo not given),TGI,[1],> 100 µM
same,TGI,[2],> 100 µM
same,TGI,[3],> 100 µM
same,TGI,[4],> 100 µM
same,TGI,[5],> 100 µM
same,TGI,[6],> 100 µM
same,TGI,[7],> 100 µM
same,TGI,[53],> 100 µM
same,TGI,[8],> 100 µM
same,TGI,[9],> 100 µM
same,TGI,[10],> 100 µM
same,TGI,[11],> 100 µM
same,TGI,[12],> 100 µM
same,TGI,[13],> 100 µM
same,TGI,[14],> 100 µM
same,TGI,[15],> 100 µM
same,TGI,[54],> 100 µM
same,TGI,[16],> 100 µM
same,TGI,[55],> 100 µM
same,TGI,[17],> 100 µM
same,TGI,[18],> 100 µM
same,TGI,[19],> 100 µM
same,TGI,[20],> 100 µM
same,TGI,[21],> 100 µM
same,TGI,[56],> 100 µM
same,TGI,[22],> 100 µM
same,TGI,[57],> 100 µM
same,TGI,[23],> 100 µM
same,TGI,[24],> 100 µM
same,TGI,[25],89.8 µM
same,TGI,[26],> 100 µM
same,TGI,[27],> 100 µM
same,TGI,[28],> 100 µM
same,TGI,[29],> 100 µM
same,TGI,[30],79.4 µM
same,TGI,[31],> 100 µM
same,TGI,[32],> 100 µM
same,TGI,[33],> 100 µM
same,TGI,[34],> 100 µM
same,TGI,[35],> 100 µM
same,TGI,[58],> 100 µM
same,TGI,[59],> 100 µM
same,TGI,[36],> 100 µM
same,TGI,[37],> 100 µM
same,TGI,[38],> 100 µM
same,TGI,[39],> 100 µM
same,TGI,[40],> 100 µM
same,TGI,[41],> 100 µM
same,TGI,[42],> 100 µM
same,TGI,[43],> 100 µM
same,TGI,[44],> 100 µM
same,TGI,[50],> 100 µM
same,TGI,[51],> 100 µM
